# Assay results published in patent publication US20210255184A1, “Biosensor Device and Methods” (The New Zealand Institute for Plant and Food Research …, priority 2018, published 2021).
# Legend:
# Or22a = target: T1, Or22a (Drosophila melanogaster, UniProt P81909); assay: Droplet interface bilayer ion channel recording, Or22a only; assay type: biochemical; settings: DIB, 10 μM ligand, holding potential +/−150, +/−100, +/−50 mV
# T1 construct: his-tag; made in house; host or cells: baculovirus-infected Sf9 cells
# T1 sequence (P81909 1-397): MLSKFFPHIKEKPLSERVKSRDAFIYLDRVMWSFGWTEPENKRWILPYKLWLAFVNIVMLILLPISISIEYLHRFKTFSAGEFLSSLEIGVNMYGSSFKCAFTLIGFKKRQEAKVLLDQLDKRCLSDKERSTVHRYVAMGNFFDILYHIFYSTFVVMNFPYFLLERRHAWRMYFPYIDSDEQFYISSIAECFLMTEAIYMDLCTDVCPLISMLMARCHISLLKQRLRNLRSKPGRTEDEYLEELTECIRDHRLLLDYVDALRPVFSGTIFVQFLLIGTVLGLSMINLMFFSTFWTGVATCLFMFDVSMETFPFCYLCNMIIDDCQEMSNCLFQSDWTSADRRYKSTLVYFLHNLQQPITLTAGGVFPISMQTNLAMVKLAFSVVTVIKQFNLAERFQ
# Protocol: (§1) Bilayers were formed between two droplets formed within a PMMA chamber filled with 1 mg/ml DPhPC in undecane and AR20 silicone oil (1:1 ratio). The first step in this process was to deposit a 50 nl droplet onto the stationary silver electrode positioned at the base of the well; this droplet consisted of an aqueous solution containing 300 mM NaCl, 10 mM HEPES (pH 7.4), containing the odorant receptor proteins in proteoliposomes (at a 1:20 dilution from the proteoliposome preparation), […] The second droplet was mounted onto a second silver electrode which was held in the oil and lipid mixture using a YOU-3 manipulator (Narishige, Japan). […] Once the droplets were in contact a bilayer formed spontaneously within 1 minute (as determined by visual assessment and an increase in the bilayer capacitance as measured with a capacitance voltage protocol using the Pico2 amplifier). Insertion of an active channel was determined by a change in current while clamping the voltage at 50 mV. […]
# (§2) Currents were recorded with a Pico2 or an eONE-HS amplifier (Tecella, USA and Elements, Italy, respectively) with built-in digitizers, operating in gap-free acquisition mode at a sampling frequency of 20 kHz, and using a 0.8 or 1.5 kHz low pass filter. […]
# (§3) Data were analysed using ANA (Dr Pusch, Genoa), EDR (Elements, Italy) and WinWCP (Dr Dempster, University of Strathclyde). […]
# Or22a/Orco = target: T2, Or22a/Orco (Drosophila melanogaster, UniProt P81909); assay: Droplet interface bilayer ion channel recording, Or22a/Orco; assay type: biochemical; settings: DIB, 10 μM ligand, at +/−100 mV, +/−50 mV and −25 mV
# T2 construct: his-tag; made in house; host or cells: baculovirus-infected Sf9 cells
# T2 sequence (P81909 1-397): T1 sequence (P81909 1-397)
# T2 sequence (Q9VNB5 1-486 partner): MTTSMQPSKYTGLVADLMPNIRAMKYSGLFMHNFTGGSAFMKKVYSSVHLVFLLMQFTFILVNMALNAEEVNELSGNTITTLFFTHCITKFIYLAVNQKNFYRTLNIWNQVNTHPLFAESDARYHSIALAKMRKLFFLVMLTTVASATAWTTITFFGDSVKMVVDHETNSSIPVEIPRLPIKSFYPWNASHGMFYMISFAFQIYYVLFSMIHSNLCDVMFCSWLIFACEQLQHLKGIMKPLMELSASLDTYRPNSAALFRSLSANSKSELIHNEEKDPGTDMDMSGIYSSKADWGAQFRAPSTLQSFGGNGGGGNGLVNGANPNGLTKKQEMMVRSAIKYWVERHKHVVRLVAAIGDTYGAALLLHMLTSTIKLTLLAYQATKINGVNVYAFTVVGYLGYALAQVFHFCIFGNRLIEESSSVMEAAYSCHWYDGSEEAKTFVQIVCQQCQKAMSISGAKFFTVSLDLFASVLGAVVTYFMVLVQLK
# Protocol: as §1, §2, §3
compound,measurement,setting,value
CCCCCC(=O)OC [methyl hexanoate],ion channel activity,Or22a,No ion channel activity
same,ion channel activity,Or22a/Orco,ion channel activity is observed
